The values that follow come from article PMC12720774, “Detergents alter the stability and lipid binding properties of the CD1d immunoreceptor” (Protein Science : A Publication of the Protein Society, 2025).

Values joined by “and” are separate entries in the source; they are usually repeats but may differ in a detail not shown here. Equal entries are not always repeated. “Also recorded” adds a separate entry of the source. Structures can show the parent of a compound that is named as a salt. Where two headings read alike, the source gives them in different places.

The target of assay [1] is T1, recombinant human CD1d ectodomain/β2m complex (hCD1d) (Homo sapiens, UniProt P15813).
T1 construct: TEV protease cleavage site ENLYFQS (C); BirA biotinylation site (C); His7 (C); made in house; host or cells: TurboCHO cells (GenScript)
T1 sequence (P15813 whole entry, looked up, the tested form may be a part, one chain of several): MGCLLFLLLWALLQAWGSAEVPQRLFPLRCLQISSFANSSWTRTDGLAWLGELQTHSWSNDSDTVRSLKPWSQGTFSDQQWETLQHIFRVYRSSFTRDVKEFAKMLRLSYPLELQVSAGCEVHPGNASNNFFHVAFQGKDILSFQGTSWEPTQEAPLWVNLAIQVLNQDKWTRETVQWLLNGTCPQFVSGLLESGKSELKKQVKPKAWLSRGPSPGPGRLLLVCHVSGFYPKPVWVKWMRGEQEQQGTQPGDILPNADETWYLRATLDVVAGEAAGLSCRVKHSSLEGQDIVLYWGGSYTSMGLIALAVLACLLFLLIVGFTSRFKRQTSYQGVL
The assay can be described thus: Intrinsic tryptophan fluorescence (ITF) binding assay. The procedure:
(§1) For ITF assays, the concentration of hCD1d was kept constant, and intrinsic Trp fluorescence (excitation at 285 nm, emission at 335 nm) was measured as a function of increasing detergent concentration (Fossum et al., [2023]) (Figure S2). The change in relative fluorescence intensity (F − F 0/F 0) provides an indication of binding. […] This was due to limited detergent solubility and decreased hCD1d stability in the presence of a large excess of detergent (see below). […] SDS was the exception, for which Trp fluorescence of hCD1d decreased with added detergent. This could indicate a unique conformational change or destabilization of the protein.
(§2) ITF spectra were recorded from 300 to 500 nm using a Horiba FL3‐21 Fluorometer with the excitation wavelength of 285 nm and excitation/emission slits of 6.2 nm. Fluorescence spectra of 50 to 100 nM hCD1d were acquired in the absence and presence of detergents in 1X PBS pH 7.4 at 25°C. Prior to data acquisition, hCD1d and detergent or lipid samples were incubated at 37°C overnight (~12 h) to simulate in vitro and in vivo loading conditions. […] For 18:1 LPC experiments, fluorescence spectra of 100 nM hCD1d were acquired in the absence and presence of 18:1 LPC in 1X PBS pH 7.4 at 25°C. […] For all ITF experiments, the change in fluorescence signal (F − F 0/F 0) was determined at 335 nm. Three replicates were performed, and data are presented as the mean ± standard deviation (n = 3). K D values were fitted with non‐linear regression in GraphPad Prism v10.1.

For assay [2], the target named is T2, recombinant human CD1d ectodomain/β2m complex (hCD1d) (Homo sapiens, UniProt P15813+P61769).
T2 construct: TEV protease cleavage site ENLYFQS (C); BirA biotinylation site (C); His7 (C); made in house; host or cells: TurboCHO cells (GenScript)
T2 sequence (P61769+P15813 fused): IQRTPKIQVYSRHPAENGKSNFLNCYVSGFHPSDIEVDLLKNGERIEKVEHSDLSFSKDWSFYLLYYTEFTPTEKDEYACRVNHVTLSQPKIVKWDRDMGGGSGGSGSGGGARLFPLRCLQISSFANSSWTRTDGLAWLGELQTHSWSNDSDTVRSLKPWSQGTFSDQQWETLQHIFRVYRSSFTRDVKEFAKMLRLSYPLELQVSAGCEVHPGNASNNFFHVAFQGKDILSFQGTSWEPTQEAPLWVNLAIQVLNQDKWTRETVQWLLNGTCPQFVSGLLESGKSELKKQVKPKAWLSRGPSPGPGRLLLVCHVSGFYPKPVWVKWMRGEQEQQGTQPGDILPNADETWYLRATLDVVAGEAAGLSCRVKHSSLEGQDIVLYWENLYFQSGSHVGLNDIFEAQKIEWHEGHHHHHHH
Described as above. The procedure:
as §1, §2

The target in assay [3] is T3, CSP 319‐328/HLA‐B*08:01/hβ2M complex (Homo sapiens, UniProt P01889, A93T/A95T/D138N/E176V/E187T/K202T/Q94N/R180D/S35A/V36M/Y33D/Y91F).
T3 construct: made in house
The assay can be described thus: MST with peptide/HLA complex. The note with it: for MST normalized fluorescence signal (Fnorm): peptide/HLA with ODG, replicates. The format is binding. The source says: To determine whether detergent effects were specific to hCD1d, we performed analogous ITF, MST, and nanoDSF experiments with a peptide/HLA complex. HLA‐B*08:01, presenting the Plasmodium falciparum derived peptide […] ([…]), was selected as a representative model system since the peptide antigen contains hydrophilic solvent‐exposed residues in the antigen‐binding groove (Frooman et al., [2025]). Although structurally similar to that of hCD1d, HLA‐B*08:01 shares low sequence identity (Figure S10a). […] By nanoDSF, ODG caused minimal destabilization of either complex (ΔT m≈−0.2 to −0.8°C; Figure S10f). […] We posit that lipid‐specific unloading effects of detergent are due to either hydrophobic residues in the antigen binding groove (detergent‐CD1d interactions) and/or the hydrophobic nature of the lipid antigen (detergent‐lipid interactions).
For comparison with peptide/HLA molecules, we prepared recombinant CSP 319‐328/HLA‐B*08:01/hβ2M complex using in vitro refolding methods fully described previously (Frooman et al., [2025]). The peptide sequence for CSP 319–328 is […]. This peptide was chosen since it contains Lys, Gln, and Asp residues predicted to be solvent‐exposed in the HLA‐B*08:01 binding groove (Frooman et al., [2025]).
MST experiments with peptide/HLA molecules and detergents were performed using an analogous protocol.

[4] abbreviates: detergent with 100 nM hCD1d, 25°C, 1X PBS pH 7.4, apparent, read-out: K D (ITF).
The mark [5] stands for this setting: ITF - Kd (uM) average, Figure 5A, detergent binding to hCD1d.
[6] abbreviates: K D (ITF), detergent with 100 nM hCD1d, 25°C, 1X PBS pH 7.4, apparent.
Where [7] appears, read: 0.001 M detergent, 100 nM hCD1d.

With `C[C@H](CCC(=O)O)[C@H]1CC[C@H]2[C@@H]3CC[C@@H]4C[C@H](O)CC[C@]4(C)[C@H]3C[C@H](O)[C@]12C` [Deoxycholate, sodium deoxycholate], the Kd in assay [1] (setting [4]) is over 10000 µM. In assay [2], the “binding to hCD1d by ITF (in words)” value is given as “No significant binding”.

With `CCCCCCCCCCCCCCCC[N+](C)(C)C` [CTAB, hexadecyltrimethylammonium bromide], the Kd in assay [1] (setting [5]) came out at 41.5 µM; in assay [1] (setting [6]), 41.5 ± 6.5 µM. For the same compound, the “F-F0/F0 (rep 1-3)” value in assay [2] (3.0518e-8 M detergent) was 0; in assay [2] (3.125e-5 M detergent), 0.613 and 0.517 and 0.672; in assay [2] (6.25e-5 M detergent) it was 0.966 and 1.08 and 1.22; in assay [2] (0.000125 M detergent), 1.45 and 1.3 and 1.29; in assay [2] (0.00025 M detergent), 1.44 and 1.52 and 1.46; in assay [2] (0.0005 M detergent), 1.55 and 1.65 and 1.44. Also, the “F-F0/F0 (rep 1-3)” value in assay [2] (setting [7]) was 1.83 and 1.56 and 1.71.

Turning to Tween 80, the “F-F0/F0 (rep 1-3)” value in assay [2] (6.1035e-9 M detergent) was 0; in assay [2] (7.8125e-7 M detergent), 0.1677 and 0.1078 and 0.1575; in assay [2] (1.5625e-6 M detergent), 0.2804 and 0.1624 and 0.168; in assay [2] (3.125e-6 M detergent), 0.6451 and 0.4306 and 0.4698; in assay [2] (6.25e-6 M detergent), 0.9699 and 0.8276 and 0.7611; in assay [2] (1.25e-5 M detergent), 0.863 and 0.6745 and 0.8384. Besides, the “F-F0/F0 (rep 1-3)” value in assay [2] (2.5e-5 M detergent) is 1.041 and 0.837 and 0.8177; in assay [2] (5e-5 M detergent), 1.186 and 0.8687 and 0.9274; in assay [2] (0.0001 M detergent), 1.309 and 1.057 and 0.8857; in assay [2] (0.0002 M detergent) it was 1.646 and 1.2423 and 1.107. In addition, the Kd in assay [2] (Figure 5A, detergent binding to hCD1d, read-out: ITF - Kd (uM) average) was found to be 4.59 µM; in assay [2] (setting [4]) it was 4.6 ± 0.9 µM.

For the compound `CCCCCCCCCCCC[N+](C)(C)[O-]` [LDAO, lauryldimethylamine‐N‐oxide], the Kd in assay [1] (setting [4]) is over 10000 µM. In assay [2], the “binding to hCD1d by ITF (in words)” value is “observable binding”. For the same compound, the “F-F0/F0 (rep 1-3)” value was 0 in assay [2] (3.0518e-8 M detergent); 0.07548 and 0.05543 and 0.06384 in assay [2] (1.2207e-7 M detergent); 0.06847 and 0.06205 and 0.06021 in assay [2] (4.8828e-7 M detergent); 0.1026 and 0.1076 and 0.1826 in assay [2] (0.00025 M detergent); 0.4171 and 0.3604 and 0.4782 in assay [2] (setting [7]).

`CCCCCCCCO[C@@H]1O[C@H](CO)[C@@H](O)[C@H](O)[C@H]1O` [ODG, n‐octyl‐β‐D‐glucopyranoside]: the Kd in assay [3] (100 nM AF647‐labeled peptide/HLA, 25°C, read-out: K D (MST), peptide/HLA) is 3970 ± 290 µM; in assay [1] (setting [4]) it was over 10000 µM. For the same compound, the “MST normalized fluorescence signal (Fnorm)” value was 823.198 and 827.76 and 828.811 in assay [3] (concentration 1.52588e-6 (unit not given)); 822.943 and 827.867 and 830.525 in assay [3] (concentration 3.05176e-6 (unit not given)); 822.246 and 827.784 and 829.217 in assay [3] (concentration 6.10352e-6 (unit not given)); 822.018 and 826.127 and 829.204 in assay [3] (concentration 1.2207e-5 (unit not given)); 822.327 and 826.016 and 829.378 in assay [3] (concentration 2.44141e-5 (unit not given)); 822.531 and 826.781 and 828.529 in assay [3] (concentration 4.88281e-5 (unit not given)). Moreover, the “MST normalized fluorescence signal (Fnorm)” value in assay [3] (concentration 9.76563e-5 (unit not given)) was 821.832 and 827.649 and 828.743; in assay [3] (concentration 0.000195313 (unit not given)), 821.404 and 825.833 and 828.951; in assay [3] (concentration 0.000390625 (unit not given)) it was 819.989 and 827.51 and 830.305; in assay [3] (concentration 0.00078125 (unit not given)), 822.464 and 828.227 and 831.061; in assay [3] (concentration 0.0015625 (unit not given)), 823.907 and 829.452 and 833.281; in assay [3] (concentration 0.003125 (unit not given)), 828.308 and 833.352 and 835.76. Further, the “MST normalized fluorescence signal (Fnorm)” value in assay [3] (concentration 0.00625 (unit not given)) is 834.384 and 840.244 and 840.854; in assay [3] (concentration 0.0125 (unit not given)), 835.617 and 843.292 and 844.526; in assay [3] (concentration 0.025 (unit not given)) it was 837.125 and 844.883 and 846.326; in assay [3] (concentration 0.05 (unit not given)), 838.274 and 844.594 and 846.629. In addition, in assay [2], the “binding to hCD1d by ITF (in words)” value is “No significant binding; also recorded: minimal concentration‐dependent fluorescence changes”. Also, in assay [2] (Concentration (M) 0.000977), the “F-F0/F0 (rep 1-3)” value is 0.

For `CCCCCCCCCCCCOS(=O)(=O)O` [SDS, sodium dodecyl sulfate], the Kd was found to be 35.5 µM in assay [1] (setting [5]) and 35.5 ± 22.6 µM in assay [1] (setting [6]). The “F-F0/F0 (rep 1-3)” value in assay [2] (3.0518e-8 M detergent) is 0.
